Results on 1 molecule are retold here after article PMC6195765 (Organic letters, 2018).

In this assay the test system is PvfC. Put plainly: ATP-[…]PPi exchange assay. The following applies: ATP co-substrate; adenylation domain. Type of assay: biochemical, Pseudomonas entomophila.

What is called Km is the substrate concentration at which the rate is half of its maximum. Consider `CC(C)[C@H](N)C(=O)O` [L-Val], for which the Km stood at 3.4 ± 0.7 mM.
